Source: patent US9708359B2, “Pyrrolopyrimidine nucleosides and analogs thereof” (Chimerix, Inc., priority 2015, dated 2017)

Legend:
[1] = Cytotoxicity in lymphocyte assays, MOLT-3 cells; format: cell-based; settings: human, parallel to HHV-6B assay
Protocol: Every antiviral assay included a parallel cytotoxicity assay with the same cells used for each virus, the same cell number, the same drug concentrations, and the same incubation times to provide the same drug exposure. To ensure that the cytotoxicity of all compounds could be compared directly, a standard neutral red uptake cytotoxicity assay for all compounds in confluent HFF cells with a 7 d incubation period was performed.
Cytotoxicity in Lymphocyte Assays:
Cell viability in all assays with lymphocytes was assessed with a luminescent Cell Viability Assay. Briefly, assay plates were incubated at ambient temperature for 30 min then luminescent reagent was added to each well and the plates were mixed to lyse the cells. Plates were then incubated for at ambient temperature and the luminescence was quantified on a luminometer. Standard methods were used to calculate drug concentrations that inhibited the proliferation of cells by 50% (CC50).
Cell viability in all assays with lymphocytes was assessed with the CellTiter-Glo Luminescent Cell Viability Assay (Promega). […] Plates were then incubated for an additional 10 min at ambient temperature and the luminescence was quantified on a luminometer. […]

[2] = system: RAW cells; test: Conversion of Compound 1 to Triphosphate in RAW Cells
[3] = system: YFV; test: microbe, parasite or virus in culture; format: cell-based; settings: Yellow fever virus, Vero
[4] = in vitro; settings: human
[5] = system: JCV; test: qPCR assay for JCV; format: cell-based, JC virus; settings: JC polyomavirus, 293TT cells
Protocol: qPCR Assays for BKV and JCV:
Primary evaluation of compounds against JC virus were also performed by methods similar to those for BK virus primary assays. Secondary assays against JCV were performed in COS7 cells by methods similar to those for BK virus to identify compounds that inhibited adsorption or penetration of the virus.
Primary evaluation of compounds against JC virus were also performed by methods similar to those for BK virus primary assays but were done in 293TT cells and utilized the 1-4 strain of JCV in 293TT cells. Viral DNA was quantified using primers 5′-[…]-3′ (SEQ ID No. 11) and 5′-[…]-3′ (SEQ ID No. 12) and probe 5′-6-FAM-[…]-TAMRA-3′ (SEQ ID No. 13) together with the plasmid pMP508 to provide a standard curve for absolute quantification. Secondary assays against JCV were performed in COS7 cells by methods similar to those for BK virus to identify compounds that inhibited adsorption or penetration of the virus.

[6] = system: HCMV; test: Plaque-reduction assay for HCMV; format: cell-based, human cytomegalovirus; settings: Human betaherpesvirus 5, HFF cells
Protocol: Plaque-Reduction Assays for HSV-1, HSV-2, VZV and HCMV:
Monolayers of cells were prepared in six-well plates and incubated at to allow the cells to reach confluency. Media was then aspirated from the wells and of virus was added to each of three wells to yield 20-30 plaques in each well. The virus was allowed to adsorb to the cells for 1 h and the plates were rocked gently every 15 min to redistribute the media. Compounds were diluted in maintenance cell culture media consisting of MEM with Earl's salts supplemented with 2% FBS, L-glutamine, penicillin, and gentamycin. Solutions were added to duplicate wells and the plates were incubated for various times, depending on the virus used. The plaque-reduction assay with HSV-1 strain F was performed in a similar manner but with Vero cells infected one day after plating. For HSV-1 and -2, the monolayers were stained with 1% crystal violet in 20% methanol and the unbound dye removed by washing with dH2O. For assays with HCMV and VZV, the cell monolayer was stained with 1% Neutral Red solution for 4 h then the stain was aspirated and the cells were washed with PBS. For all assays, plaques were enumerated using a stereomicroscope and the concentration of compound that reduced plaque formation by 50% (EC50) was interpolated from the experimental data. […]

[7] = RAW cells incubated with 0.5 μM Compound 1 for 48 hours
[8] = RAW cells incubated with 1 μM Compound 1 for 48 hours
[9] = RAW cells incubated with 5 μM Compound 1 for 48 hours
[10] = RAW cells incubated with 10 μM Compound 1 for 48 hours

Q: What does the source list for `Cc1nc(N)c2c(C(N)=O)cn([C@@H]3O[C@H](CO)[C@@H](O)[C@H]3O)c2n1` [Compound 1, 4-amino-7-((2R,3R,4S,5R)-3,4-dihydroxy-5-(hydroxymethyl)tetrahydrofuran-2-yl)-2-methyl-7H-pyrrolo[2,3-d]pyrimidine-5-carboxamide]?
A: CC50 [1]: 44.7 µM; Concentration (ng/1 × 10^6 cells) [2, 7]: 0.17 ng/1 × 10^6 cells; Concentration (pmol/1 × 10^6 cells) [2, 7]: 0.53 pmol/1 × 10^6 cells; Concentration (ng/1 × 10^6 cells) [2, 8]: 0.13 ng/1 × 10^6 cells; Concentration (pmol/1 × 10^6 cells) [2, 8]: 0.40 pmol/1 × 10^6 cells; Concentration (ng/1 × 10^6 cells) [2, 9]: 0.65 ng/1 × 10^6 cells; Concentration (pmol/1 × 10^6 cells) [2, 9]: 2.01 pmol/1 × 10^6 cells; Concentration (ng/1 × 10^6 cells) [2, 10]: 1.02 ng/1 × 10^6 cells; Concentration (pmol/1 × 10^6 cells) [2, 10]: 3.15 pmol/1 × 10^6 cells; EC50 [3]: > 100 µM; CC50 [4]: > 60 µM; EC50 [5]: 0.46 µM; EC50 [6]: > 60 µM
